Publication PMC6913882 (ACS chemical biology, 2018)
Where two headings read alike, the source gives them in different places.

Key:
Assay type in all cases: binding
[1] = target: T1, DNA methyltransferase-1 (mDNMT1) (Mus musculus, UniProt P13864, N1248A); test: crystal structure at […] Å
[2] = target: T2, DNA methyltransferase-1 (mDNMT1) (Mus musculus, UniProt P13864); test: SPR
[3] = target: T1, DNA methyltransferase-1 (mDNMT1); test: SPR
[4] = target: T2, DNA methyltransferase-1 (mDNMT1); test: SPR; remark: listed apart in the source
[5] = target: DNA methyltransferase-1 (mDNMT1) (Mus musculus, UniProt P13864, R1279D); test: SPR
Chain of DNA methyltransferase-1 (mDNMT1) (Mus musculus, UniProt P13864, R1279D) (P13864 731-1602 R1279D): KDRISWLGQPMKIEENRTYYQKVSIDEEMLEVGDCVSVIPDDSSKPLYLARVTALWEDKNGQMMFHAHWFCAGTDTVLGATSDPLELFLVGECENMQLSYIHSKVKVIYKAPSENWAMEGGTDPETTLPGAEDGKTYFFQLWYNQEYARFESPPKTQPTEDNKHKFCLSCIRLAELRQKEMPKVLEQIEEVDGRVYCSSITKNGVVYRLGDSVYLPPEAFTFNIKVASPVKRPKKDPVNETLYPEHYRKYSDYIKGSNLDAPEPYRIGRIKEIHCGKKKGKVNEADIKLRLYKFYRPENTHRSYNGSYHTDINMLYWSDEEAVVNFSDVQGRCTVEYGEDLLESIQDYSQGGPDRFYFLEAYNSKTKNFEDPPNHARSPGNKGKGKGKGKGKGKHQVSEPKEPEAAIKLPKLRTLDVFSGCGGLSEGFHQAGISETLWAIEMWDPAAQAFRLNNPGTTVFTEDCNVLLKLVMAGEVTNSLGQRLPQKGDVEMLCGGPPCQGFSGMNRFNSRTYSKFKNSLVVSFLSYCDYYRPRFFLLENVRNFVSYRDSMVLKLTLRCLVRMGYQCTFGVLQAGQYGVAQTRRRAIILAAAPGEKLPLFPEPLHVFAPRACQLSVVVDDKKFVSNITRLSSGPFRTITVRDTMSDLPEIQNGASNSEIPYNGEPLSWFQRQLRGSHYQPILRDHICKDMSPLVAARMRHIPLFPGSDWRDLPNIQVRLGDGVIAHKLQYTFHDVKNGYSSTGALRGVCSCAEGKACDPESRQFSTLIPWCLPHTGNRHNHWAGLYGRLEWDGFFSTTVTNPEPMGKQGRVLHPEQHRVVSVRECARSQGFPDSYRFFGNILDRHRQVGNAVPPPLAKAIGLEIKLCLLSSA

T2 sequence (P13864 731-1602): as the sequence (P13864 731-1602 R1279D) above, with D549R counted along it
T1 sequence (P13864 731-1602 N1248A): as the sequence (P13864 731-1602 R1279D) above, with N518A, D549R counted along it

Kd [2] [µM]	Kd [3] [µM]	Kd [4] [µM]	Kd [5] [µM]	Compound	Kd [1]
~0.47	–	–	–	Nc1ncnc2c1ncn2[C@@H]1O[C@H](CSCC[C@H](N)C(=O)O)[C@@H](O)[C@H]1O [AdoHcy]	The N1248A mutant was bound to AdoHcy (Figure S5A)
–	6.61	~5.75	3.78	C[S+](CC[C@H](N)C(=O)[O-])C[C@H]1O[C@@H](n2cnc3c(N)ncnc32)[C@H](O)[C@@H]1O (some centres unmarked) [AdoMet]	–
